Columns and labels:
[1] = system: isoprenalin-induced tachycardia; test: Inhibition of isoprenalin-induced tachycardia in anaesthetized cats; type: in vivo, cat; details: for ED50: Felis catus, iv, graphic extrapolation on dose-effect curve, read-out: ED50 (reduction of isoprenalin-induced tachycardia by 50%)
Method: A comparative screening test was conducted on anaestetized cats suffering from isoprenalin-induced tachycardia.
(§1) To provide an informative determination of the ED50 of the test preparation on isoprenalin-induced tachycardia of anaesthetized cats as well as qualitative determination of the characteristic effect of the preparation on blood pressure and heart beat frequency in resting position.
3.2 Test animals: male and female cats,
weighing 1.6 to 3.2 kg, un-
(§2) Anaesthetic: hexobarbital (Evipan-Na),
Respiration: spontaneous after tracheo-
femoralis for injection of
the test preparations; ca-
(§3) theterization of A. femo-
(§4) ralis for measuring arterial
(§5) blood pressure; blood coagu-
sodium heparinate, 600 units
(§6) phase and mean blood press-
(§7) ure, using a Statham press-
(§8) ure gauge and an HSE elec-
(§9) tromanometer; heart frequency
(§10) by means of the pulse wave
(§11) interval, using an HSE-EKA
(§12) sphygmograph or HSE frequency
3.3.2 Administration of the
Isoprenalin: i.v. injection; dose 0.3 to
1 μg/kg; volume administer-
ed: 0.1 ml/kg; intervals bet-
ween injections; 10 min.
i.v. injections, each 4 min.
prior to the next isoprenalin
injection; dosage range: 10
to 100 μg/kg and, respect.,
injection time: 10 sec.
3.3.3 Criteria determining
percentage reduction in iso-
prenalin-induced tachycardia;
measured at maximum efficien-
cy (4 min. after injection).
ED50 is determined by graph-
ic extrapolation on the
curves showing the effect-
iveness of the dose admini-
stered. ED50 means the dose
(μg/kg i.v.) required for
reducing tachycardia by
50% as compared to the ori-
Table 1 informs on the results of the above experiments. The quantitative criteria in this table are: reduction of isoprenalin-induced tachycardia in percent; ED50 determined by graphic extrapolation on the curve showing the effectiveness of the respective dose; and relative activity which may be calculated as quotient from the ED50 (μg/kg) of propranolol and the ED50 of the test preparation.

[2] = system: isoprenalin-induced drop in arterial blood pressure; test: Reduction of isoprenalin-induced drop in arterial blood pressure in anaesthetized cats; type: in vivo, cat; details: for m BP Isopr. (reduction in mean, isoprenalin-induced drop in arterial blood pressure): i.v., qualitative, 10 to 100 ug/kg; for isoprenalin-induced drop in arterial blood pressure: summary in words
β-adrenergic = β-adrenergic blocking activity in mammals; type: in vivo; details: mammals such as mice, rats and cats
Text: It is also to be expected that the above compound will have similar effects when administered to humans.

[3] = system: heart beat frequency in resting position; test: Effect on heart beat frequency in resting position in anaesthetized cats; type: in vivo, cat; details: for HR norm (bradycardial effect, heart beat frequency in resting position): anaesthetized cats, i.v., qualitative, 10 to 100 ug/kg
Text: as §1, §2, §9, §10, §11, §12
(§13) The remaining data in the table refer to the characteristic effect of the test preparation on the heart beat frequency in resting position, arterial blood pressure in resting position, and reduction of isoprenalin-induced drop in blood pressure; the respective data are more of qualitative nature.

[4] = Acute toxicity (Litchfield and Wilcoxon); details: in vivo
Method: The acute toxicity of the inventive compound is determined by the method of Litchfield and Wilcoxon (J. Pharmacol. exp. Therap., 96 (1949), 99).

[5] = system: mean arterial blood pressure in resting position; test: Effect on mean arterial blood pressure in resting position in anaesthetized cats; type: in vivo, cat; details: i.v., qualitative, 10 to 100 ug/kg
Text: as §1, §2, §3, §4, §5, §6, §7, §8, §9, §13

Compound	ED50 ([1]; anaesthetized cats) [mg/kg]	Rel. Activity (ED50 of propranolol / ED50 of test preparation) ([1]; based on ED50 of propranolol (=1))	beta-blocking activity in the tests on isoprenalin-induced tachycardia ([1]; compared to propranolol, anaesthetized cats)	m BP Isopr. (reduction in mean, isoprenalin-induced drop in arterial blood pressure) [2]	isoprenalin-induced drop in arterial blood pressure [2]	β-adrenergic blocking activity (β-adrenergic)	HR norm (bradycardial effect, heart beat frequency in resting position) [3]	reduction of frequency of heart beat in resting position ([3]; depending on the original position and the dose administered)	LD50 ([4]; ip, mouse, female and male, in each case 10 female and male mice) [mg/kg]	LD50 ([4]; iv, mouse, female and male, in each case 10 female and male mice) [mg/kg]	LD50 ([4]; po, mouse, female and male, in each case 10 female and male mice) [mg/kg]	LD50 ([4]; rat, ip, female and male) [mg/kg]	LD50 ([4]; rat, iv, female) [mg/kg]	LD50 ([4]; rat, iv, male) [mg/kg]	LD50 ([4]; rat, po, female and male) [mg/kg]	m BP norm (effectiveness in lowering blood pressure, mean arterial pressure in resting position) [5]
Cc1ccc([N+](=O)[O-])c(OCC(O)CNC(C)C)c1.Cl (centres unmarked) [Compound of the invention, 1-(5-methyl-2-nitrophenoxy)-2-hydroxy-3-isopropylaminopropane-hydrochloride]	0.021	2.3	good beta-blocking activity	+ - +++R and d.d.	reliably reduced and blocked	demonstrated	+ - +++ and d.d.	effectively reduced	250	105	1280	192	68.9	80	1120	–
CC(C)NCC(O)COc1cccc2ccccc12 (centres unmarked) [Propranolol, reference compound]	0.048	–	–	+ - +++R and d.d.	reliably reduced and blocked	–	+ - +++ and d.d.	–	–	–	–	–	–	–	–	+ - ++ and d.d.
